In this test the test system is recombinant rabies virus 1088 strain expressing Gaussia Luciferase (GLuc) (1088/GLuc). Format: cell-based.

Our source for the IC50 values is patent EP4104902B1, “COMPOUNDS AND M[…] SAME” (priority 2020, dated 2021).

Like-named read-outs stand apart in the source and are kept apart here.

In the case of `CC(C)CNC(=O)[C@]12NC[C@@H]3C[C@H]1CN(CC(C)C)[C@H]2[C@@H]3Cc1ccccc1` (relative stereo) [IB-3], the IC50 is 10 to 30 µM (read-out: Anti-rabies activity) and 19.6 µM (read-out: IC50).

For the compound `CC(C)CNC(=O)[C@]12NC[C@@H]3C[C@H]1CN(Cc1ccccc1)[C@H]2[C@@H]3CC(C)C` (relative stereo) [IB-4], the IC50 is, setting by setting: (read-out: Anti-rabies activity) 10 to 30 µM; (read-out: IC50) 19.2 µM.

As for `CC(C)C[C@@H]1[C@@H]2CN[C@@]3(C(=O)NCc4ccccc4)[C@@H](C2)CN(CC(C)C)[C@@H]13` (relative stereo) [IB-5], the IC50 was 10 to 30 µM (read-out: Anti-rabies activity) and 18.2 µM (read-out: IC50).

For the compound `CC(C)CCN1C[C@@H]2C[C@H]3CN[C@]2(C(=O)NCc2ccccc2)[C@@H]1[C@@H]3Cc1ccccc1` (relative stereo) [IB-9], the IC50 runs as follows: (read-out: Anti-rabies activity) 10 to 30 µM; (read-out: IC50) 17 µM.

On to `CC(C)CN1C[C@@H]2C[C@H]3CN[C@]2(C(=O)NCCc2ccccc2)[C@@H]1[C@@H]3Cc1ccccc1` (relative stereo) [IB-12], for which the IC50 is 10 to 30 µM (read-out: Anti-rabies activity) and 15.5 µM (read-out: IC50).

Consider `Cc1cccc(C[C@@H]2[C@@H]3CN[C@@]4(C(=O)NCc5ccccc5)[C@@H](C3)CN(CC(C)C)[C@@H]24)c1` (relative stereo) [IB-13], for which the IC50 (read-out: Anti-rabies activity) was in the range of 10 to 30 µM and the IC50 (read-out: IC50) was determined as 14.3 µM.

Turning to `Cc1cccc(CNC(=O)[C@]23NC[C@@H]4C[C@H]2CN(CC(C)C)[C@H]3[C@@H]4Cc2ccccc2)c1` (relative stereo) [IB-15], the IC50 by setting is: (read-out: Anti-rabies activity) 10 to 30 µM; (read-out: IC50) 15.9 µM.

Turning to `O=C(NCc1ccccc1)[C@]12NC[C@H]3C[C@H]1CN(Cc1cccc4ccccc14)[C@H]2[C@@H]3Cc1ccccc1` (relative stereo) [IB-42, (3S*,3aS*,6S*,7R*,7aS*)-N,7-dibenzyl-1-(naphthalen-1-ylmethyl)octahydro-3aH-3,6-methanopyrrolo[3,2-b]pyridine-3a-carboxamide], the IC50 (read-out: Anti-rabies activity) lay in the range of 10 to 30 µM.

For `CC(C)C[C@@H]1[C@@H]2CN[C@@]3(C(=O)NCc4cccc5ccccc45)[C@@H](C2)CN(CC(N)=O)[C@@H]13` (relative stereo) [IB-81], the IC50 (read-out: Anti-rabies activity) lay within 10 to 30 µM.

With `NC(=O)CN1C[C@@H]2C[C@H]3CN[C@]2(C(=O)NCc2cccc4ccccc24)[C@@H]1[C@@H]3Cc1ccccc1` (relative stereo) [IB-82], for the setting “read-out: Anti-rabies activity”, the IC50 fell in the range of 10 to 30 µM.

Consider `NC(=O)CN1C[C@@H]2C[C@H]3CN[C@]2(C(=O)NCc2cccc4ccccc24)[C@@H]1[C@@H]3Cc1ccc(O)cc1` (relative stereo) [IB-83], for which the IC50 (read-out: Anti-rabies activity) was 10 to 30 µM.

Regarding `CC(C)CC[C@@H]1[C@@H]2CN[C@@]3(C(=O)NCc4cccc5ccccc45)[C@@H](C2)CN(CC(N)=O)[C@@H]13` (relative stereo) [IB-84], where the note is “read-out: Anti-rabies activity”, the IC50 fell in the range of 10 to 30 µM.

`CC(C)CC[C@@H]1[C@@H]2CN[C@@]3(C(=O)NCCc4ccccc4)[C@@H](C2)CN(CC(N)=O)[C@@H]13` (relative stereo) [IB-89]: the IC50 (read-out: Anti-rabies activity) was less than 5 µM.

Turning to `NC(=O)CN1C[C@@H]2C[C@H]3CN[C@]2(C(=O)NCc2cccc4ccccc24)[C@@H]1[C@@H]3Cc1cccc2ccccc12` (relative stereo) [IB-90], the IC50 (read-out: Anti-rabies activity) is less than 5 µM.

As to `NC(=O)CN1C[C@@H]2C[C@H]3CN[C@]2(C(=O)NCc2ccc(F)cc2)[C@@H]1[C@@H]3Cc1ccccc1` (relative stereo) [IB-92], the IC50 (read-out: Anti-rabies activity) was in the range of 10 to 30 µM.

Regarding `NC(=O)CN1C[C@@H]2C[C@H]3CN[C@]2(C(=O)NCc2ccc(F)cc2)[C@@H]1[C@@H]3CCc1ccccc1` (relative stereo) [IB-95], under “read-out: Anti-rabies activity”, the IC50 was less than 5 µM.

With `NC(=O)CN1C[C@@H]2C[C@H]3CN[C@]2(C(=O)NCc2ccc(F)cc2)[C@@H]1[C@@H]3Cc1cccc2ccccc12` (relative stereo) [IB-96], where the note is “read-out: Anti-rabies activity”, the IC50 is 10 to 30 µM.

For the compound `NC(=O)CN1C[C@@H]2C[C@H]3CN[C@]2(C(=O)NCCc2ccccc2)[C@@H]1[C@@H]3Cc1cccc2ccccc12` (relative stereo) [IB-97], for the setting “read-out: Anti-rabies activity”, the IC50 is less than 5 µM.

In the case of `CC(C)CCNC(=O)[C@]12NC[C@@H]3C[C@H]1CN(CC(N)=O)[C@H]2[C@@H]3CCc1ccccc1` (relative stereo) [IB-102], the IC50 (read-out: Anti-rabies activity) is less than 5 µM.

For the compound `CC(C)CCNC(=O)[C@]12NC[C@@H]3C[C@H]1CN(CC(N)=O)[C@H]2[C@@H]3Cc1cccc2ccccc12` (relative stereo) [IB-103], the IC50 (read-out: Anti-rabies activity) fell in the range of 10 to 30 µM.

Turning to `CCCCCCNC(=O)[C@]12NC[C@@H]3C[C@H]1CN(CC(N)=O)[C@H]2[C@@H]3Cc1ccccc1` (relative stereo) [IB-105], the IC50 (read-out: Anti-rabies activity) lay within 10 to 30 µM.

On to `CC(C)C[C@@H]1[C@@H]2CN[C@@]3(C(=O)NCc4cccc5ccccc45)[C@@H](C2)CN(CCCNC(=N)N)[C@@H]13` (relative stereo) [IB-164, (3S*, 3aS*, 6R*, 7R*, 7aS*)-1-(3-guanidinopropyl)-7-isobutyl-N-(naphthalen-1-ylmethyl)octahydro-3aH-3,6-methanopyrrolo[3,2-b]pyridine-3a-carboxamide], for which, for the setting “read-out: Anti-rabies activity”, the IC50 is less than 5 µM.

On to `CCCCCCNC(=O)[C@]12NC[C@@H]3C[C@H]1CN(CCCNC(=N)N)[C@H]2[C@@H]3CCc1ccccc1` (relative stereo) [IB-174], for which the IC50 (read-out: Anti-rabies activity) was in the range of 10 to 30 µM.

`CC(C)C[C@@H]1[C@@H]2CN[C@@]3(C(=O)NC(C)C)[C@@H](C2)CN(CCCNC(=N)N)[C@@H]13` (relative stereo) [IB-176]: where the note is “read-out: Anti-rabies activity”, the IC50 is 10 to 30 µM.

On to `CC(C)NC(=O)[C@]12NC[C@@H]3C[C@H]1CN(CCCNC(=N)N)[C@H]2[C@@H]3CCc1ccccc1` (relative stereo) [IB-179], for which, under “read-out: Anti-rabies activity”, the IC50 lay in the range of 10 to 30 µM.

`N=C(N)NCCCN1C[C@@H]2C[C@H]3CN[C@]2(C(=O)NCc2ccc(F)cc2)[C@@H]1[C@@H]3Cc1ccccc1` (relative stereo) [IB-182]: the IC50 (read-out: Anti-rabies activity) fell in the range of 10 to 30 µM.

As to `CC(C)CNC(=O)[C@]12NC[C@@H]3C[C@H]1CN(CC(C)C)[C@H]2[C@@H]3CCCNC(=N)N` (relative stereo) [IB-187], the IC50 (read-out: Anti-rabies activity) fell in the range of 10 to 30 µM.

For the compound `CC(C)CCNC(=O)[C@]12NC[C@@H]3C[C@H]1CN(CC(C)C)[C@H]2[C@@H]3CCCNC(=N)N` (relative stereo) [IB-192], the IC50 (read-out: Anti-rabies activity) was less than 5 µM.

With `CC(C)CNC(=O)[C@]12NC[C@@H]3C[C@H]1CN(Cc1ccccc1)[C@H]2[C@@H]3CCCNC(=N)N` (relative stereo) [IB-198], the IC50 (read-out: Anti-rabies activity) lay within 10 to 30 µM.

`N=C(N)NCCC[C@@H]1[C@@H]2CN[C@@]3(C(=O)NCCc4ccccc4)[C@@H](C2)CN(Cc2ccccc2)[C@@H]13` (relative stereo) [IB-247]: for the setting “read-out: Anti-rabies activity”, the IC50 fell in the range of 10 to 30 µM.

In the case of `CCCCCCNC(=O)[C@]12NC[C@@H]3C[C@H]1CN(Cc1ccccc1)[C@H]2[C@@H]3CCCNC(=N)N` (relative stereo) [IB-249], the IC50 (read-out: Anti-rabies activity) was in the range of 10 to 30 µM.

For the compound `N=C(N)NCCC[C@@H]1[C@@H]2CN[C@@]3(C(=O)NCc4ccc(F)cc4)[C@@H](C2)CN(Cc2ccccc2)[C@@H]13` (relative stereo) [IB-250], the IC50 (read-out: Anti-rabies activity) was in the range of 10 to 30 µM.

With `CCCCCCNC(=O)[C@]12NC[C@@H]3C[C@H]1CN(CCc1ccccc1)[C@H]2[C@@H]3CCCNC(=N)N` (relative stereo) [IB-256], for the setting “read-out: Anti-rabies activity”, the IC50 lay within 10 to 30 µM.

`N=C(N)NCCC[C@@H]1[C@@H]2CN[C@@]3(C(=O)NCc4ccccc4)[C@@H](C2)CN(Cc2ccc(F)cc2)[C@@H]13` (relative stereo) [IB-260]: the IC50 (read-out: Anti-rabies activity) fell in the range of 10 to 30 µM.

With `N=C(N)NCCC[C@@H]1[C@@H]2CN[C@@]3(C(=O)NCCc4ccccc4)[C@@H](C2)CN(Cc2ccc(F)cc2)[C@@H]13` (relative stereo) [IB-262], the IC50 (read-out: Anti-rabies activity) lay within 10 to 30 µM.

For `CC(C)CC[C@@H]1[C@@H]2CN[C@@]3(C(=O)NCCC(N)=O)[C@@H](C2)CN(Cc2ccccc2)[C@@H]13` (relative stereo) [IB-274], the IC50 (read-out: Anti-rabies activity) was in the range of 10 to 30 µM.

In the case of `N=C(N)NCCCNC(=O)[C@]12NC[C@@H]3C[C@H]1CN(Cc1ccccc1)[C@H]2[C@@H]3Cc1ccccc1` (relative stereo) [IB-276], where the note is “read-out: Anti-rabies activity”, the IC50 is 10 to 30 µM.

As to `N=C(N)NCCCNC(=O)[C@]12NC[C@@H]3C[C@H]1CN(Cc1ccccc1)[C@H]2[C@@H]3CCc1ccccc1` (relative stereo) [IB-279], under “read-out: Anti-rabies activity”, the IC50 lay within 10 to 30 µM.

Turning to `N=C(N)NCCCNC(=O)[C@]12NC[C@@H]3C[C@H]1CN(Cc1ccccc1)[C@H]2[C@@H]3Cc1cccc2ccccc12` (relative stereo) [IB-280], the IC50 (read-out: Anti-rabies activity) was 10 to 30 µM.

As to `N=C(N)NCCCN1C[C@@H]2C[C@H]3CN[C@]2(C(=O)NCc2ccccc2)[C@@H]1[C@@H]3Cc1cccc2ccccc12` (relative stereo) [IB-300], the IC50 (read-out: Anti-rabies activity) lay in the range of 10 to 30 µM.

In the case of `N=C(N)NCCCN1C[C@@H]2C[C@H]3CN[C@]2(C(=O)NCCc2ccccc2)[C@@H]1[C@@H]3Cc1cccc2ccccc12` (relative stereo) [IB-327], the IC50 (read-out: Anti-rabies activity) lay in the range of 10 to 30 µM.

In the case of `CC(C)CC[C@@H]1[C@@H]2CN[C@@]3(C(=O)NCCC(N)=O)[C@@H](C2)CN(CCc2ccccc2)[C@@H]13` (relative stereo) [IB-342], the IC50 (read-out: Anti-rabies activity) fell in the range of 10 to 30 µM.

For `N=C(N)NCCCNC(=O)[C@]12NC[C@@H]3C[C@H]1CN(CCc1ccccc1)[C@H]2[C@@H]3Cc1ccccc1` (relative stereo) [IB-344], the IC50 (read-out: Anti-rabies activity) was in the range of 10 to 30 µM.

With `CC(C)CC[C@@H]1[C@@H]2CN[C@@]3(C(=O)NCCCNC(=N)N)[C@@H](C2)CN(CCc2ccccc2)[C@@H]13` (relative stereo) [IB-346], the IC50 (read-out: Anti-rabies activity) lay in the range of 10 to 30 µM.

In the case of `N=C(N)NCCCNC(=O)[C@]12NC[C@@H]3C[C@H]1CN(CCc1ccccc1)[C@H]2[C@@H]3Cc1cccc2ccccc12` (relative stereo) [IB-347], the IC50 (read-out: Anti-rabies activity) is 10 to 30 µM.

As for `CC(C)CC[C@@H]1[C@@H]2CN[C@@]3(C(=O)NCCC(N)=O)[C@@H](C2)CN(Cc2cccc4ccccc24)[C@@H]13` (relative stereo) [IB-349], the IC50 (read-out: Anti-rabies activity) is less than 5 µM.

Consider `CC(C)C[C@@H]1[C@@H]2CN[C@@]3(C(=O)NCCCNC(=N)N)[C@@H](C2)CN(Cc2cccc4ccccc24)[C@@H]13` (relative stereo) [IB-350], for which the IC50 (read-out: Anti-rabies activity) was in the range of 10 to 30 µM.

Take `N=C(N)NCCCNC(=O)[C@]12NC[C@@H]3C[C@H]1CN(Cc1cccc4ccccc14)[C@H]2[C@@H]3Cc1ccccc1` (relative stereo) [IB-351]: the IC50 (read-out: Anti-rabies activity) is 10 to 30 µM.

On to `CC(C)CC[C@@H]1[C@@H]2CN[C@@]3(C(=O)NCCCNC(=N)N)[C@@H](C2)CN(Cc2cccc4ccccc24)[C@@H]13` (relative stereo) [IB-353], for which the IC50 (read-out: Anti-rabies activity) is less than 5 µM.
